# From patent publication US10004732B2 (Novartis AG, priority 2014, dated 2018)
# Where a name gives a salt, the structure may show the parent alone.
# Key:
# PI 4-kinase beta = PI 4-kinase beta (Homo sapiens, UniProt Q9UBF8); experiment: Kinase Glo Luminescent Kinase Assay (Kglo), assay D; format: biochemical; conditions: read-out: Assay D PI4Kβ IC50
# Vps34 = Vps34 (Homo sapiens, UniProt Q8NEB9); experiment: Kinase Glo Luminescent Kinase Assay (Kglo), assay C; format: biochemical; conditions: read-out: Assay C VPS34 IC50
# Chain of Vps34 (Q8NEB9 whole entry, species assumed): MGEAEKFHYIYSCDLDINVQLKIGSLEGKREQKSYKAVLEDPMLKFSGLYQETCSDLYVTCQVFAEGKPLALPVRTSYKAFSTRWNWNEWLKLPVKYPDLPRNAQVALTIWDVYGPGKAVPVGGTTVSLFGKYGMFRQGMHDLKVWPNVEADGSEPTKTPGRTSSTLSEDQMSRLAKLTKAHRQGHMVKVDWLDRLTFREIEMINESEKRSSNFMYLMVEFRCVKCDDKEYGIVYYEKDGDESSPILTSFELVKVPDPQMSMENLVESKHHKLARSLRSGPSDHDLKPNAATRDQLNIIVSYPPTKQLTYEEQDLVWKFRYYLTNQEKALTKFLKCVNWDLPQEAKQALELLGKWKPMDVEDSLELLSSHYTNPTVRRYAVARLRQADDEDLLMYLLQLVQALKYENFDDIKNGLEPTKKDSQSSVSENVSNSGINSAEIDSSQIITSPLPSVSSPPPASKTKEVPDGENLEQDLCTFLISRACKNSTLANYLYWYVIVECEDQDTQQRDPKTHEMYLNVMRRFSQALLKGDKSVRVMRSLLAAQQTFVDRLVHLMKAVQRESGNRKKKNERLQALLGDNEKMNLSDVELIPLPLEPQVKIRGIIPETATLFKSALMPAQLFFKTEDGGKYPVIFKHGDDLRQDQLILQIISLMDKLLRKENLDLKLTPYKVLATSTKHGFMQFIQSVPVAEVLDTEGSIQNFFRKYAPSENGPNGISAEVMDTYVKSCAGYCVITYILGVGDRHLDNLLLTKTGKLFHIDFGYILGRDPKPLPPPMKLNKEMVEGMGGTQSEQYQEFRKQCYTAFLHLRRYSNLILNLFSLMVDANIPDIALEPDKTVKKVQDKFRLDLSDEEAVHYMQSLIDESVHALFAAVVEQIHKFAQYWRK
# PI 3-kinase beta [1] = target: T1, PI 3-kinase beta (Homo sapiens, UniProt P42338); experiment: Cellular assay I1, p-Akt (S473) in Rat-1 cells, Surefire format; format: cell-based; conditions: non-asterisked data: version I1 (Surefire format), Rat-1 cells; read-out: Assay I PI3Kβ IC50
# PI 3-kinase alpha [2] = target: T2, PI 3-kinase alpha (Homo sapiens, UniProt P42336); experiment: Cellular assay H1, p-Akt (S473) in Rat-1 cells, Surefire format; format: cell-based; conditions: non-asterisked data: version H1 (Surefire format), Rat-1 cells; read-out: Assay H PI3Kα IC50
# Target sequence in this assay (P42336 whole entry): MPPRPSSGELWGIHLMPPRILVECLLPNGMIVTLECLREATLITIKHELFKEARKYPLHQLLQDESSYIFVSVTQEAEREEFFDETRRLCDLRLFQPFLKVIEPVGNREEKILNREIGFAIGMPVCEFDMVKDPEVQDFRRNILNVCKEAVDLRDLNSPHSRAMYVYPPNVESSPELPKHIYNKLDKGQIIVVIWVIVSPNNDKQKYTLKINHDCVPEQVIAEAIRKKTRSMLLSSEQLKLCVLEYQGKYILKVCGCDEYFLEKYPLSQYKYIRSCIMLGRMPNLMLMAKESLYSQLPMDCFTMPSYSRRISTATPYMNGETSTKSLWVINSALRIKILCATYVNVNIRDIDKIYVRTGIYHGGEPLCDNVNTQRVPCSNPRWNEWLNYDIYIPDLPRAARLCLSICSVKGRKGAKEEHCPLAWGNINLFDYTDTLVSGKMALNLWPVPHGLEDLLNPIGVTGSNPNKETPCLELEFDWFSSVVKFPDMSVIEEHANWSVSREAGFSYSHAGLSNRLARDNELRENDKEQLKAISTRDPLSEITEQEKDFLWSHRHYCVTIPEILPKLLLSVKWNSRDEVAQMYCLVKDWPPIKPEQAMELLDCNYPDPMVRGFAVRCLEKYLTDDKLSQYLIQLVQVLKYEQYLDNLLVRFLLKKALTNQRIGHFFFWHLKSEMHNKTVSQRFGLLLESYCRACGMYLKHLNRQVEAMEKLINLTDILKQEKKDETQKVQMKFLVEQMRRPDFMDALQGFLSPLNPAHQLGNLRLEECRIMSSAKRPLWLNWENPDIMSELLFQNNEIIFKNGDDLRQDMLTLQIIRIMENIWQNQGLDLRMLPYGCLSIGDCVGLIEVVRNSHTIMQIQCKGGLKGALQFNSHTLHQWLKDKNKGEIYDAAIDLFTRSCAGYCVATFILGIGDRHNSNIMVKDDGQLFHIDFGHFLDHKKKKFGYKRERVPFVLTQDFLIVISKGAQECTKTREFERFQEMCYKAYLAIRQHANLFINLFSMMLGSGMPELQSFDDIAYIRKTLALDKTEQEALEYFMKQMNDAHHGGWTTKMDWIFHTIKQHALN
# Target sequence in this assay (Q63787 whole entry partner): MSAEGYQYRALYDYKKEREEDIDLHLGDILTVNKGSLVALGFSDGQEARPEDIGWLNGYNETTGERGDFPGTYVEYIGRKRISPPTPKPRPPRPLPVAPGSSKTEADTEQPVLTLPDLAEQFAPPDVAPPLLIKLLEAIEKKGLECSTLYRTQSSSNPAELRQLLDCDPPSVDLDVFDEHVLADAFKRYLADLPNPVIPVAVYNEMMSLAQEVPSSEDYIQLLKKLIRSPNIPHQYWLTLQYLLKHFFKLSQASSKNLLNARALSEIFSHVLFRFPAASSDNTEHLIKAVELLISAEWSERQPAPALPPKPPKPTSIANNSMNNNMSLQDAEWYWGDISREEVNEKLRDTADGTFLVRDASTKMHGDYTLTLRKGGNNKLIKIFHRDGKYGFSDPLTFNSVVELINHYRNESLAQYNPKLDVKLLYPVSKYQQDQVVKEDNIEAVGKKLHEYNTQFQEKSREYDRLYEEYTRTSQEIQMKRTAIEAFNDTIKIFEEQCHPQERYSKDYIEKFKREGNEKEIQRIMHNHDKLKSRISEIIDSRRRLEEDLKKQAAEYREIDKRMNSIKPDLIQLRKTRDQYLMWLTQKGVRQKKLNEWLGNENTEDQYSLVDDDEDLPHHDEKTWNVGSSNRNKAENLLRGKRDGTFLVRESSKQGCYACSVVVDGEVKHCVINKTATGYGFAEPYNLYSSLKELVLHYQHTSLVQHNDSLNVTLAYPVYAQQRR
# [3] = Microsomal clearance assay (M); conditions: intrinsic clearance in rat liver microsomes
# Procedure: The experiments were performed in 96-well glass plates at 37° C. on an automated Tecan EVO platform. Test compounds at a concentration of 10 mM in pure DMSO were diluted 1:1000 in water to 10 μM. […] Reactions were initiated by the addition of 150 μL of a cofactor solution containing 2 mM NADPH.
# PI 3-kinase alpha [4] = target: T2, PI 3-kinase alpha; experiment: Kinase Glo Luminescent Kinase Assay (Kglo), assay A; format: biochemical; conditions: read-out: Assay A PI3Kα IC50
# Target sequence in this assay (P42336 whole entry): as the sequence (P42336 whole entry) above
# PI 3-kinase gamma [5] = target: T3, PI 3-kinase gamma (Homo sapiens, UniProt P48736); experiment: Cellular U937 AKT assay K1 (MSD); format: cell-based; conditions: U937 cells, K1 format; read-out: Assay K1 PI3Kγ IC50
# T3 sequence (P48736 whole entry): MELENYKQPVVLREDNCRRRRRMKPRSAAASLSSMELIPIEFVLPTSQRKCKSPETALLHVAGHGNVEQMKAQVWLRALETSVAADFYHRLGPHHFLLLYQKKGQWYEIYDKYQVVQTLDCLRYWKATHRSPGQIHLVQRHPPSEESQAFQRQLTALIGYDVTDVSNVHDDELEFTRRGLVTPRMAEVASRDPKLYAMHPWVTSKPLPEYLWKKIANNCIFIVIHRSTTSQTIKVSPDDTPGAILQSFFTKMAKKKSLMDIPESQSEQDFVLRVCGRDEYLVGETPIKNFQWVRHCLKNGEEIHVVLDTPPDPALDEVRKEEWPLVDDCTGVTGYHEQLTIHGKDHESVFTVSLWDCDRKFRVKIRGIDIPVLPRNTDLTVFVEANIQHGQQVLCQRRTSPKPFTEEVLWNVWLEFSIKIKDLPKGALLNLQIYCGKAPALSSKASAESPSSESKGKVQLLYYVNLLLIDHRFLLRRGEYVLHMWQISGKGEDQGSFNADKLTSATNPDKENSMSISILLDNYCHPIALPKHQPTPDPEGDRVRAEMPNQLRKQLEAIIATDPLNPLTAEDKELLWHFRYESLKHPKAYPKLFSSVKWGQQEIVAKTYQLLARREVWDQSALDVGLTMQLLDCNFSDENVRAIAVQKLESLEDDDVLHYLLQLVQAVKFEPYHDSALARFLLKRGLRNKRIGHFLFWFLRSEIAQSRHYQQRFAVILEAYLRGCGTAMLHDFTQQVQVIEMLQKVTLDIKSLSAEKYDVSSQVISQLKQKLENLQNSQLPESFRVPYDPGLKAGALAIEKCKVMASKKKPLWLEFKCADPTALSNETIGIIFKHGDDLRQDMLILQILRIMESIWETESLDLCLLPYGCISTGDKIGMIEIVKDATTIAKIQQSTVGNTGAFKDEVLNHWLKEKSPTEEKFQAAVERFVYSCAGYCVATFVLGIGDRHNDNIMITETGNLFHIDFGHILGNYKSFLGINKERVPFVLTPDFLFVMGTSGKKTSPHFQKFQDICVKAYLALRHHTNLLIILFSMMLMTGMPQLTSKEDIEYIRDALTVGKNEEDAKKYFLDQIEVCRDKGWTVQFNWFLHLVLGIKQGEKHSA
# [6] = system: IL-8-induced neutrophil shape change in human whole blood; experiment: Whole blood neutrophil shape change assay (L); format: cell-based; conditions: Homo sapiens, Neutrophil, IL-8, human whole blood, read-out: Assay L WBSC IC50
# PI 3-kinase delta [7] = target: T4, PI 3-kinase delta (Homo sapiens, UniProt O00329); experiment: TR-FRET Adapta assay, assay F; conditions: read-out: Assay F PI3Kδ IC50
# Target sequence in this assay (O00329 whole entry): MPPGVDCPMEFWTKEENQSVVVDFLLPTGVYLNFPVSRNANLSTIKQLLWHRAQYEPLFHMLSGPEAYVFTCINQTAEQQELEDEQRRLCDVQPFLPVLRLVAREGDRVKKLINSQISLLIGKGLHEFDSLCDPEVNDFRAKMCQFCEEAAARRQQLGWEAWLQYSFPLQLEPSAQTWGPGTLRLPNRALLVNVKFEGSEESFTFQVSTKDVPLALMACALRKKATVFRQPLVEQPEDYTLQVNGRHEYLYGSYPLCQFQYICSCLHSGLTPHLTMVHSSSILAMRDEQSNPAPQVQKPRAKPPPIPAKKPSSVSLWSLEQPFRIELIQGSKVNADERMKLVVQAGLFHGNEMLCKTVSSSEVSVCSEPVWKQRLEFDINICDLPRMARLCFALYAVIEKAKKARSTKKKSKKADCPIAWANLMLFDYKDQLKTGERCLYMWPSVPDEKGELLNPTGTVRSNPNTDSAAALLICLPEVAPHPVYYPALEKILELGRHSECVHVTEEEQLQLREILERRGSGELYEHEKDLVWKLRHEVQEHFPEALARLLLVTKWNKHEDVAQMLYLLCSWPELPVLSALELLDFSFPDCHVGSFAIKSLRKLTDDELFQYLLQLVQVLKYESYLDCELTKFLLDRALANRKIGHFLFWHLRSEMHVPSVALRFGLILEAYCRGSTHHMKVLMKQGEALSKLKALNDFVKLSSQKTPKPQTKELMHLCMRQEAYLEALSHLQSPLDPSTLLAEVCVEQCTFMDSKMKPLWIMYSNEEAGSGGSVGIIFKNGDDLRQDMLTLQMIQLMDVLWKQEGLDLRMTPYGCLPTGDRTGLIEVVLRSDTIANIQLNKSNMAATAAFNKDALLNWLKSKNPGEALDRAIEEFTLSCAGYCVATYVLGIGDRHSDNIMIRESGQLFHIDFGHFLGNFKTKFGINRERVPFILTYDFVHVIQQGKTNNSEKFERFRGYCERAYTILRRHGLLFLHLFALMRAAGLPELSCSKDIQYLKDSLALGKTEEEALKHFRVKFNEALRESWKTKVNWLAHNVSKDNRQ
# Target sequence in this assay (P27986 461-568 partner): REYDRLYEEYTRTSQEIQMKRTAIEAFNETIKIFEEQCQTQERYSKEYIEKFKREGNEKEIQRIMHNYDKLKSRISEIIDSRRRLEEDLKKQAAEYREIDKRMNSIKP
# PI 3-kinase gamma [8] = target: T3, PI 3-kinase gamma; experiment: TR-FRET Adapta assay, assay E; format: biochemical; conditions: read-out: Assay E PI3Kγ IC50
# PI 3-kinase delta [9] = target: T4, PI 3-kinase delta; experiment: Cellular assay J1, p-Akt (S473) in Rat-1 cells, Surefire format; format: cell-based; conditions: non-asterisked data: version J1 (Surefire format), Rat-1 cells; read-out: Assay J PI3Kδ IC50
# Target sequence in this assay (O00329 whole entry): as the sequence (O00329 whole entry) above
# Target sequence in this assay (Q63787 whole entry partner): as the sequence (Q63787 whole entry partner) above
# mTOR = mTOR (Homo sapiens, UniProt P42345); experiment: Lanthascreen kinase binding assay, assay G; conditions: read-out: Assay G mTOR IC50
# Procedure: Lanthascreen™ Kinase Binding Assay for mTOR (G)
# Binding of an inhibitor to the kinase competes for binding with the tracer, resulting in a loss of FRET.
# 50 nL of compound dilutions were dispensed onto white 384-well small volume polystyrene plate.
# PI 3-kinase beta [10] = target: T1, PI 3-kinase beta; experiment: Kinase Glo Luminescent Kinase Assay (Kglo), assay B; format: biochemical; conditions: read-out: Assay B PI3Kβ IC50
# Procedure: Kinase Glo Luminescent Kinase Assay (Kglo) for Pb 3-Kinase Alpha (A), Pb 3-Kinase Beta (B), Vps34 (C), Pb 4-Kinase Beta (D)
# The Kinase Glo Luminescent Kinase Assay (Promega, Madison/Wis., USA) is a homogeneous HTS method of measuring kinase activity by quantifying the amount of ATP remaining in solution following a kinase reaction.
# L-α-phosphatidylinositol (PI), provided as 10 mg/ml solution in methanol, was transferred into a glass tube and dried under a nitrogen beam. It was then resuspended in 3% OctylGlucoside (1-0-n-octyl-beta-D-glucopyranoside) by vortexing and stored at 4° C. 5 μL of a mix of PI/OctylGlucoside with the PI 3-kinase alpha and PI 3-kinase beta subtypes, or Vps34 or PI 4-kinase beta were added. Kinase reactions were started by the addition of 5 μl of an ATP-mix containing in a final volume 10 μL 10 mM TRIS-HCl pH 7.5, 3 mM MgCl2, 50 mM NaCl, 0.05% CHAPS, 1 mM DTT and 1 μM ATP at room temperature.
# All fits were performed with the program XLfit4 (ID Business Solutions, Guildford, UK).
SMILES,IC50 (PI 4-kinase beta),IC50 (Vps34),IC50 (PI 3-kinase beta [1]),IC50 (PI 3-kinase alpha [2]),Assay M RLM CI(int) [3],IC50 (PI 3-kinase alpha [4]),IC50 (PI 3-kinase gamma [5]),IC50 [6],IC50 (PI 3-kinase delta [7]),IC50 (PI 3-kinase gamma [8]),IC50 (PI 3-kinase delta [9]),IC50 (mTOR),IC50 (PI 3-kinase beta [10])
"Cc1nnc(-c2nc(-c3cc(S(=O)(=O)N[C@H]4CC[C@H](O)CC4)ccc3C)cnc2N)o1 [Example 1, Trans-3-[5-Amino-6-(5-methyl-[1,3,4]oxadiazol-2-yl)-pyrazin-2-yl]-N-(4-hydroxy-cyclohexyl)-4-methyl-benzenesulfonamide]",> 9.1 µM,> 9.1 µM,> 10 µM,9360 nM,<3.4 µL/min/mg,1300 nM,504 nM,803 nM,1010 nM,15 nM,7420 nM,,
"Cc1noc(-c2nc(-c3cc(S(=O)(=O)N[C@H]4CC[C@H](O)CC4)ccc3C)cnc2N)n1 [Example 2, Trans-3-[5-Amino-6-(3-methyl-[1,2,4]oxadiazol-5-yl)-pyrazin-2-yl]-N-(4-hydroxy-cyclohexyl)-4-methyl-benzenesulfonamide]",> 9.1 µM,> 9.1 µM,> 10 µM,3180 nM,25 µL/min/mg,820 nM,147 nM,687 nM,390 nM,3 nM,1070 nM,> 9.1 µM,
"Cc1noc(-c2nc(-c3cc(S(=O)(=O)NCCC(C)(C)O)ccc3C)cnc2N)n1 [Example 3, 3-[5-Amino-6-(3-methyl-[1,2,4]oxadiazol-5-yl)-pyrazin-2-yl]-N-(3-hydroxy-3-methyl-butyl)-4-methyl-benzenesulfonamide]",> 9.1 µM,> 9.1 µM,8.33 µM,1040 nM,,600 nM,394 nM,1110 nM,140 nM,46 nM,1170 nM,> 9.1 µM,5.88 µM
"Cc1ccc(S(=O)(=O)NCCC(C)(C)O)cc1-c1cnc(N)c(-c2cn(C)nc2C)n1 [Example 12, 3-(5-Amino-6-(1,3-dimethyl-1H-pyrazol-4-yl)pyrazin-2-yl)-N-(3-hydroxy-3-methylbutyl)-4-methyl benzenesulfonamide]",> 9.1 µM,> 9.1 µM,> 10 µM,4700 nM,,140 nM,117 nM,200 nM,240 nM,41 nM,3410 nM,> 9.1 µM,2.65 µM
"Cc1ccc(S(=O)(=O)N[C@H]2CC[C@H](O)CC2)cc1-c1cnc(N)c(-c2nc(C(C)C)no2)n1 [Example 23, 3-[5-Amino-6-(3-isopropyl-[1,2,4]oxadiazol-5-yl)-pyrazin-2-yl]-N-(4-hydroxy-cyclohexyl)-4-methyl-benzene sulfonamide]",> 9.1 µM,> 9.1 µM,6.46 µM,3010 nM,,390 nM,106 nM,447 nM,90 nM,10 nM,1010 nM,6.45 µM,> 9.1 µM
"Cc1cn(-c2nc(-c3cc(S(=O)(=O)NCCC(C)(C)O)ccc3C)cnc2N)cn1 [Example 63, 3-(5-Amino-6-(4-methyl-1H-imidazol-1-yl)pyrazin-2-yl)-N-(3-hydroxy-3-methylbutyl)-4-methylbenzenesulfonamide]",7.85 µM,> 9.1 µM,,2970 nM,44 µL/min/mg,330 nM,163 nM,626 nM,420 nM,68 nM,3250 nM,6.5 µM,3.93 µM
"Cc1ccc(S(=O)(=O)N[C@H]2CC[C@@H](O)CC2)cc1-c1cnc(N)c(-c2cnn(C)c2)n1 [Example 75, 3-(5-Amino-6-(1-methyl-1H-pyrazol-4-yl)pyrazin-2-yl)-N-((1s,4s)-4-hydroxycyclohexyl)-4-methylbenzenesulfonamide]",7.97 µM,7.49 µM,,> 10000 nM,13 µL/min/mg,470 nM,91 nM,830 nM,240 nM,56 nM,7800 nM,4.51 µM,2.48 µM
"Cc1ccc(S(=O)(=O)NOC2CCOC2)cc1-c1cnc(N)c(-n2cncn2)n1 (centres unmarked) [Example 112.5, 3-(5-Amino-6-(1H-1,2,4-triazol-1-yl)pyrazin-2-yl)-4-methyl-N-((tetrahydrofuran-3-yl)oxy)benzenesulfonamide]",3 µM,> 10 µM,> 10 µM,130 nM,40 µL/min/mg,120 nM,36 nM,970 nM,530 nM,,830 nM,1.83 µM,2.25 µM
CCCn1cc(-c2nc(-c3cc(S(=O)(=O)NCCC(C)(C)O)ccc3C)cnc2N)cn1 [Example 119.25],4.05 µM,> 9.1 µM,4.1 µM,1280 nM,,400 nM,65 nM,2090 nM,290 nM,31 nM,1200 nM,8.74 µM,5.78 µM
"Cc1ccc(S(=O)(=O)NCCC(C)(C)O)cc1-c1cnc(N)c(-c2cnn(Cc3ccccc3)c2)n1 [Example 132, 3-(5-Amino-6-(1-benzyl-1H-pyrazol-4-yl)pyrazin-2-yl)-N-(3-hydroxy-3-methylbutyl)-4-methylbenzenesulfonamide hydrochloride]",2.26 µM,> 9.1 µM,6.05 µM,1280 nM,,180 nM,74 nM,449 nM,50 nM,17 nM,350 nM,> 9.1 µM,> 9.1 µM
"CCc1noc(-c2nc(-c3cc(S(=O)(=O)NCCC(C)(C)O)ccc3C)cnc2N)n1 [Example 136, 3-(5-Amino-6-(3-ethyl-1,2,4-oxadiazol-5-yl)pyrazin-2-yl)-N-(3-hydroxy-3-methylbutyl)-4-methylbenzenesulfonamide]",> 9.1 µM,> 9.1 µM,> 10 µM,990 nM,,440 nM,124 nM,1300 nM,130 nM,12 nM,1120 nM,> 9.1 µM,> 9.1 µM
"CCc1noc(-c2nc(-c3cc(S(=O)(=O)N[C@H]4CC[C@H](O)CC4)ccc3C)cnc2N)n1 [Example 139, Trans-3-[5-Amino-6-(3-ethyl-[1,2,4]oxadiazol-5-yl)-pyrazin-2-yl]-N-(4-hydroxy-cyclohexyl)-4-methyl-benzene sulfonamide]",> 9.1 µM,> 9.1 µM,7.96 µM,1080 nM,,540 nM,102 nM,565 nM,160 nM,16 nM,970 nM,8.3 µM,8.39 µM
